Reference: patent US6949250B2, “Selective algaecides for control of cyanochloronta” (The United States of America as represented by the …, priority 2002, dated 2005)
Read-outs that look alike come from different tables or passages of the source.

How the values were obtained:
Solubility in water = assay type: physicochemical
Oscillatoria perornata [1] = experiment: 96-hour IC50 determination; assay type: cell-based; details: for IC50: 96-hour 50% inhibition concentration; for selective toxicity towards O. perornata compared to S. capricornutum (result in words): based on laboratory screening and IC50 results
Description: (§1) The green alga Selenastrum capricornutum (obtained from the United States Environmental Protection Agency, Corvallis, Oreg.) was used as the representative green algal species in the bioassay since it is a common species found in southeastern United States catfish ponds. […] In addition, a 96-hour 50% inhibition concentration (IC50) was determined for DNA1-19-1 and DNA2-59-1 by using the method described by Schrader et al. (1998b). Stock solutions of DNA1-19-1 and DNA2-59-1 were prepared so that final concentrations screened for 96-hour IC50 determinations were as follows: 1) 0, 0.01, 0.033, 0.1, 0.333, 1.0, 3.3, and 10.0 μM DNA1-19-1 for both O. perornata and S. capricornutum; 2) 0, 0.003, 0.01, 0.033, 0.1, 0.333, 1.0, and 3.333 μM DNA2-59-1 for O. perornata; and 3) 0, 0.1, 0.333, 1.0, 3.333, 10.0, 33.333, and 100.0 μM DNA2-59-1 for S. capricornutum. Estimation of the IC50 was determined by plotting 96-hour absorbance readings against logarithmic dilution values of the anthraquinone analogs.
(§2) The green alga Selenastrum capricornutum (obtained from the United States Environmental Protection Agency, Corvallis, Oreg.) was used as the representative green algal species in the bioassay since it is a common species found in southeastern United States catfish ponds. […] Stock solutions of DNA1-19-1 and DNA2-59-1 were prepared so that final concentrations screened for 96-hour IC50 determinations were as follows: 1) 0, 0.01, 0.033, 0.1, 0.333, 1.0, 3.3, and 10.0 μM DNA1-19-1 for both O. perornata and S. capricornutum; 2) 0, 0.003, 0.01, 0.033, 0.1, 0.333, 1.0, and 3.333 μM DNA2-59-1 for O. perornata; and 3) 0, 0.1, 0.333, 1.0, 3.333, 10.0, 33.333, and 100.0 μM DNA2-59-1 for S. capricornutum. Estimation of the IC50 was determined by plotting 96-hour absorbance readings against logarithmic dilution values of the anthraquinone analogs.

[2] = test system: Selenastrum capricornutum; experiment: 96-hour IC50 determination; assay type: cell-based; details: 96-hour 50% inhibition concentration, read-out: IC50, Selanastrum capricornutum
Description: as §1, §2

Oscillatoria perornata [3] = experiment: Rapid bioassay screening for selective algicides (LOEC, LCIC); assay type: cell-based; details: rapid screening; for MIC: read-out: LCIC (lowest-complete-inhibition concentration), Oscillatoria perornata; for minimal effective concentration: read-out: LOEC (lowest-observed-effect concentration), Oscillatoria perornata
[4] = test system: Selenastrum capricornutum; experiment: as above; assay type: cell-based; details: rapid screening

Row | SMILES | solubility in water (Solubility in water) | IC50 (Oscillatoria perornata [1]) | selective toxicity towards O. perornata compared to S. capricornutum (result in words) (Oscillatoria perornata [1]) | IC50 [2] | MIC (Oscillatoria perornata [3]) | minimal effective concentration (Oscillatoria perornata [3]) | LCIC (lowest-complete-inhibition concentration), Selenastrum capricornutum [4] | LOEC (lowest-observed-effect concentration), Selenastrum capricornutum [4] | IC50 (Oscillatoria perornata [1]; Planktothrix perornata) | IC50 ([2]; Selenastrum capricornutum) | MIC (Oscillatoria perornata [3]; Planktothrix perornata) | minimal effective concentration (Oscillatoria perornata [3]; Planktothrix perornata) | MIC ([4]; Selenastrum capricornutum, read-out: LCIC (lowest-complete-inhibition concentration), Selenastrum capricornutum) | minimal effective concentration ([4]; Selenastrum capricornutum, read-out: LOEC (lowest-observed-effect concentration), Selenastrum capricornutum)
1 | CCN(CC)CCCC(C)NCc1ccc2c(c1)C(=O)c1ccccc1C2=O.O=P(O)(O)O.O=P(O)(O)O (stereo not shown) [DNA1-19-1, 2-[methylamino-N-(1′-methyl-4′-N,N-diethylaminobutyl)]-9,10-anthraquinone diphosphate] | soluble in water | 63 nM | very selectively toxic | 5010 nM | 0.1 µM | 10 nM | 10,000 nM | 10,000 nM | – | – | – | – | – | –
2 | CC(C)NCc1ccc2c(c1)C(=O)c1ccccc1C2=O [DNA2-59-1, 2-[methylamino-N-(1′-methylethyl)]-9,10-anthraquinone monophosphate] | soluble in water | – | very selectively toxic | – | – | – | – | – | 6.3 nM | 5620 nM | 0.1 µM | 10 nM | 100 µM | 10 µM
